Measured values taken from the supplement of paper PMC4862054.

Columns and labels:
Conditions in all cases: incubation time: 72 h
[1] = system: MDA-MB-453; test: normalised viability (% of control), CellTiter-Blue; higher = more viable cells (about 100 = DMSO control)
How it was run: (§1)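 Each entry is normalised viability at a single listed concentration within a series. It comes from breast cancer cell lines incubated 72 h with compound in 384-well plates, then measured with CellTiter-Blue fluorescence at 560/590 nm. Every plate was normalised between vehicle (100) and a positive kill control (0).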

[2] = system: CAL-85-1; test: as above
How it was run: as §1

[3] = system: BT-549; test: as above
How it was run: as §1

[4] = system: MDA-MB-468; test: as above
How it was run: as §1

[5] = system: MCF-10A; test: drug sensitivity score (DSS), CellTiter-Glo (DSS (AUC-based score)); higher = stronger drug effect (viability inhibition or cytotoxicity); extreme values may be limits of the assay
How it was run: (§2)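 Breast cancer cells were seeded into 384-well plates containing compound at 5 concentrations in 10-fold steps over a compound-specific 10,000-fold range and incubated 72 h. After CellTox Green and CellTiter-Glo readings, each plate was normalised to 0.1 % DMSO and a positive kill control. The drug sensitivity score rests on the area under the fitted dose-response curve.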

[6] = system: HDQ-P1; test: as above
How it was run: as §2

[7] = system: CAL-51; test: as above
How it was run: as §2

[8] = system: SK-BR-3; test: as above
How it was run: as §2

[9] = system: MDA-MB-453; test: as above
How it was run: as §2

[10] = system: MDA-MB-436; test: as above
How it was run: as §2

[11] = system: CAL-148; test: as above
How it was run: as §2

[12] = system: HCC1599; test: normalised viability (% of control), CellTiter-Blue; higher = more viable cells (about 100 = DMSO control)
Experimental: (§3)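 DSRT, CellTiter-Blue viability, 72 h incubation. Signal is normalised to DMSO and benzethonium chloride controls. Value is the normalised response at dose 3.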

[13] = system: HDQ-P1; test: as above
Experimental: as §3

[14] = system: CAL-51; test: as above
Experimental: as §3

[15] = system: Hs578T; test: as above
Experimental: as §3

[16] = system: DU-4475; test: as above
Experimental: as §3

[17] = system: HCC1937; test: as above
Experimental: as §3

[18] = system: SK-BR-3; test: as above
Experimental: as §3

[19] = system: MDA-MB-453; test: as above; remark: listed apart in the source
Experimental: as §3

[20] = system: MFM-223; test: as above
Experimental: as §3

[21] = system: MDA-MB-436; test: as above
Experimental: as §3

[22] = system: CAL-85-1; test: as above; remark: listed apart in the source
Experimental: as §3

[23] = system: BT-549; test: as above; remark: listed apart in the source
Experimental: as §3

[24] = system: HCC1143; test: as above
Experimental: as §3

[25] = system: CAL-148; test: as above
Experimental: as §3

[26] = system: BT-474; test: as above
Experimental: as §3

[27] = system: MDA-MB-231; test: as above
Experimental: as §3

[28] = system: CAL-120; test: as above
Experimental: as §3

[29] = system: MDA-MB-468; test: as above; remark: listed apart in the source
Experimental: as §3

Oc1ccc2c(c1)CC[C@H](c1ccccc1)[C@@H]2c1ccc(OCCN2CCCC2)cc1 [Lasofoxifene]
Conditions | normalised viability [%]
[1], 0.3 nM | 115
[1], 3 nM | 98.3
[1], 10 nM | 98.9
[2], 0.3 nM | 83.5
[2], 3 nM | 82.5
[2], 10 nM | 93
[3], 1 nM | 88.1
[3], 100 nM | 83.2
[3], 1000 nM | 90.3
[4], 1 nM | 95
[4], 100 nM | 95.8
[4], 1000 nM | 94.4
[12], 10 nM | 104
[13], 1 nM | 107
[14], 1 nM | 95.1
[15], 10 nM | 84.3
[16], 1 nM | 98.7
[17], 10 nM | 87.2
[18], 10 nM | 83.2
[19], 1 nM | 108
[20], 10 nM | 82.8
[21], 10 nM | 85.3
[22], 1 nM | 94.4
[23], 10 nM | 113
[24], 10 nM | 90.7
[25], 1 nM | 101
[26], 10 nM | 122
[27], 10 nM | 90.1
[28], 10 nM | 86.9
[29], 10 nM | 87.2

Conditions | drug sensitivity score
[5] | 0
[6] | 0
[7] | 0
[8] | 0
[9] | 0
[10] | 0
[11] | 0

O=C(Nc1ccncc1)C(=O)c1cn(Cc2ccc(Cl)cc2)c2ccccc12 [Indibulin]
Conditions | normalised viability [%]
[1], 3 nM | 97.2
[1], 30 nM | 61.7
[1], 100 nM | 65.5
[2], 3 nM | 102
[2], 30 nM | 91.3
[2], 100 nM | 95
[3], 10 nM | 103
[3], 1000 nM | 31.4
[3], 10000 nM | 23.5
[4], 10 nM | 95.7
[4], 1000 nM | 49.8
[4], 10000 nM | 36.7
[12], 100 nM | 146
[13], 10 nM | 95.8
[14], 10 nM | 100
[15], 100 nM | 67.7
[16], 10 nM | 108
[17], 100 nM | 30.4
[18], 100 nM | 18.9
[19], 10 nM | 84.8
[20], 100 nM | 108
[21], 100 nM | 73.8
[22], 10 nM | 106
[23], 100 nM | 69.9
[24], 100 nM | 64
[25], 10 nM | 105
[26], 100 nM | 41.7
[27], 100 nM | 52
[28], 100 nM | 36.5
[29], 100 nM | 61.1

Conditions | drug sensitivity score
[5] | 0
[6] | 3.33
[7] | 19.4
[8] | 12.8
[9] | 6.57
[10] | 11.9
[11] | 0
